{"source": "the kinase profiling compilation of Christmann-Franck et al. (2016)", "key": {"MAPK10 (human)": {"molecular_target": "MAPK10 (human) (UniProt P53779)", "sequence (P53779 whole entry, looked up)": "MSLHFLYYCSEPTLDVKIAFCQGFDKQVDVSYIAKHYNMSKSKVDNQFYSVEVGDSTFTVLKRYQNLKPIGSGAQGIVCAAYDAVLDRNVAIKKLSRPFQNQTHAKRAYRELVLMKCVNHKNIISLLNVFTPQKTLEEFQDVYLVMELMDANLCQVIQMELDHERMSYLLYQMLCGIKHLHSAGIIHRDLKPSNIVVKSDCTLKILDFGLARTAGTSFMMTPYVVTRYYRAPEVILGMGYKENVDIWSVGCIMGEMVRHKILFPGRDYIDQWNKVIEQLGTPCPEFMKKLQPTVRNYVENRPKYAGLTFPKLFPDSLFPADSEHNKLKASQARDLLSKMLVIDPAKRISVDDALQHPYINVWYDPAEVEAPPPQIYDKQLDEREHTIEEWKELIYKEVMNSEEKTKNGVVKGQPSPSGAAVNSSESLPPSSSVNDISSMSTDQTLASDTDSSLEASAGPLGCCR", "experiment": "KINOMEscan competition binding", "conditions": "compound 10.0 µM; call rule not given here"}, "TXK (human)": {"molecular_target": "TXK (human) (UniProt P42681)", "sequence (P42681 whole entry, looked up)": "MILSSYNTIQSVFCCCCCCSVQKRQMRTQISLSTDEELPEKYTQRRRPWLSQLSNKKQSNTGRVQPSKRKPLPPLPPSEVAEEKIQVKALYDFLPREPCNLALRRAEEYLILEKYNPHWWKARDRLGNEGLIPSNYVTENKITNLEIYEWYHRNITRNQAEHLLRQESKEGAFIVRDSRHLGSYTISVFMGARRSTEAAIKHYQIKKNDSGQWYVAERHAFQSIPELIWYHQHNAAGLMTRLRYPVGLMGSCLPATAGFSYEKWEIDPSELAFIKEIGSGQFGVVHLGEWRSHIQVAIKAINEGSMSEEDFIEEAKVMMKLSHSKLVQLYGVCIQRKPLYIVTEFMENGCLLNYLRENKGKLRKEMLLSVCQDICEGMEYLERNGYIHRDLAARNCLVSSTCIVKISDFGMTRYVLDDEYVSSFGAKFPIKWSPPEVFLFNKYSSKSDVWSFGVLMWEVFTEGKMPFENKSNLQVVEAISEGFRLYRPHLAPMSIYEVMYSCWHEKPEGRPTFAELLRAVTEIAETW"}, "PAK2 (human)": {"molecular_target": "PAK2 (human) (UniProt Q13177)", "sequence (Q13177 whole entry, looked up)": "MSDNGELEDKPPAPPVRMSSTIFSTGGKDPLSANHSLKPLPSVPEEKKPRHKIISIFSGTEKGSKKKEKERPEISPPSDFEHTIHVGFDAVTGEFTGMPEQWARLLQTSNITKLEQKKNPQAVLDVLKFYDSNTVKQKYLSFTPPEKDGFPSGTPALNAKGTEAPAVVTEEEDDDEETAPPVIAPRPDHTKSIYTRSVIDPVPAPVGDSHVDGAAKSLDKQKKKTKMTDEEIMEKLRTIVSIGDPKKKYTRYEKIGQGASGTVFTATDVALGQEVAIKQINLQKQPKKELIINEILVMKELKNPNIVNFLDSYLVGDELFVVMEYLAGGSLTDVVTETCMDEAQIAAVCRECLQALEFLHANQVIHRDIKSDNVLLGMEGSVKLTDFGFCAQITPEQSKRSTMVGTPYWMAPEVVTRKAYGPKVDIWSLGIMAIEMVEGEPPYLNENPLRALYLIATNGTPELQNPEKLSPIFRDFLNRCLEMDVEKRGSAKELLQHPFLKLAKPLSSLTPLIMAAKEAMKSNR"}, "RPS6KA4 KD1 (human)": {"molecular_target": "RPS6KA4 KD1 (human) (UniProt O75676)"}, "BRSK2 (human)": {"molecular_target": "BRSK2 (human) (UniProt Q8IWQ3)", "sequence (Q8IWQ3 whole entry, looked up)": "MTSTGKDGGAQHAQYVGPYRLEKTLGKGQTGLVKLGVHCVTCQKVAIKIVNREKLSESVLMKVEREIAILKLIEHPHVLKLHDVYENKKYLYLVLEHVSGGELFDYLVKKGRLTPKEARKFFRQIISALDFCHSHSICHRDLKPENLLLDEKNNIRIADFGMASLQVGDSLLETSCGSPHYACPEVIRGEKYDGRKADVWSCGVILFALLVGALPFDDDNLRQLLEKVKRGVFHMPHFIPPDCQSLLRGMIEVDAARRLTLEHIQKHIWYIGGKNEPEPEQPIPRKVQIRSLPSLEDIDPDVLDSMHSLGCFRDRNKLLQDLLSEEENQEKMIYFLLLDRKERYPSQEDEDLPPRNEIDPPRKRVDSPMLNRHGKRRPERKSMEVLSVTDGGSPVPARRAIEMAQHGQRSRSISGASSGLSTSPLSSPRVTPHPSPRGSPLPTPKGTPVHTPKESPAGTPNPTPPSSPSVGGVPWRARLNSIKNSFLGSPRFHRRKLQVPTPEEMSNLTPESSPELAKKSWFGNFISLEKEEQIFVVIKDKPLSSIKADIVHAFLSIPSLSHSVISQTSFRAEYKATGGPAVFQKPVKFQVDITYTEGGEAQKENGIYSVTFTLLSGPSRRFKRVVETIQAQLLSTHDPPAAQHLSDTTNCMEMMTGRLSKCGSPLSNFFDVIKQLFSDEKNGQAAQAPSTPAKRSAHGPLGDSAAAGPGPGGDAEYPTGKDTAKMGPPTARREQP"}, "PTK2 (human)": {"molecular_target": "PTK2 (human) (UniProt Q05397)"}, "PRKAA1 (human)": {"molecular_target": "PRKAA1 (human) (UniProt Q13131)", "sequence (Q13131 whole entry, looked up)": "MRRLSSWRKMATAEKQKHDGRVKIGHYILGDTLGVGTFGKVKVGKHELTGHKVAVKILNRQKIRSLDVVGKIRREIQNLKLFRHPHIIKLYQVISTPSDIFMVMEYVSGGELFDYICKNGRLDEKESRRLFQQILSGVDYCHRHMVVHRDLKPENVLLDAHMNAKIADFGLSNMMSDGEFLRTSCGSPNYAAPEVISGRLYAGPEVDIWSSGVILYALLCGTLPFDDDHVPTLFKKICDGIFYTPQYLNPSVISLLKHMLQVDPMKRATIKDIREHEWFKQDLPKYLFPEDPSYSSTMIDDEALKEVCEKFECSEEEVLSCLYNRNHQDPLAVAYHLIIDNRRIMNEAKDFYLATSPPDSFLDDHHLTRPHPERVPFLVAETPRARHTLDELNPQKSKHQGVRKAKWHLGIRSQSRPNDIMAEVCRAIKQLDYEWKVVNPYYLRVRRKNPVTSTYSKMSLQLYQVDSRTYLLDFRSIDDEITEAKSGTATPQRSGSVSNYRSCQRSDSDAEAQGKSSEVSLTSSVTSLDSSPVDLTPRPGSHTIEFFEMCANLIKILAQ"}, "RPS6KA5 KD1 (human)": {"molecular_target": "RPS6KA5 KD1 (human) (UniProt O75582)", "sequence (O75582 whole entry, looked up)": "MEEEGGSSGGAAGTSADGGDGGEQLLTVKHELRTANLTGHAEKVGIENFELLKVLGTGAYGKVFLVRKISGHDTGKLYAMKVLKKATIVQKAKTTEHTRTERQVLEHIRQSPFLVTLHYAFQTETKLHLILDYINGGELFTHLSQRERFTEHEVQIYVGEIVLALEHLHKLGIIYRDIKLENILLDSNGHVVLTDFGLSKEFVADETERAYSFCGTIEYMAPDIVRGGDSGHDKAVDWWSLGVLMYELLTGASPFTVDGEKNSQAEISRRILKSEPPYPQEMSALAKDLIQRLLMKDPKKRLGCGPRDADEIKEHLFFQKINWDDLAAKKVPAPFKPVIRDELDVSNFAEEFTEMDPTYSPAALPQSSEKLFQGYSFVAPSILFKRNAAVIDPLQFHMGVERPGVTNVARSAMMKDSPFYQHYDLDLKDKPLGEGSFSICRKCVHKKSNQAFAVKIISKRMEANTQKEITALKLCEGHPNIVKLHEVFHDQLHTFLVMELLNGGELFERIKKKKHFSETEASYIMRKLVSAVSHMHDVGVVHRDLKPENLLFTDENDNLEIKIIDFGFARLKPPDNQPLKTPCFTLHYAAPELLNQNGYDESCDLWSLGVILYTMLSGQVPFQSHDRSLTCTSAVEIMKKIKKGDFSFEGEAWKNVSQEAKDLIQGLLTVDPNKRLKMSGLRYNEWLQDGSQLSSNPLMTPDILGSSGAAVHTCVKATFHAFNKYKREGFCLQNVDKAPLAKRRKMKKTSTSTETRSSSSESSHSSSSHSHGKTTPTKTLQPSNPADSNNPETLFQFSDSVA"}, "ROS1 (human)": {"molecular_target": "ROS1 (human) (UniProt P08922)"}, "PTK2B (human)": {"molecular_target": "PTK2B (human) (UniProt Q14289)"}, "LTK (human)": {"molecular_target": "LTK (human) (UniProt P29376)"}, "[1]": {"molecular_target": "TYK2 JH1 catalytic (human) (UniProt P29597)", "sequence (P29597 whole entry, looked up)": "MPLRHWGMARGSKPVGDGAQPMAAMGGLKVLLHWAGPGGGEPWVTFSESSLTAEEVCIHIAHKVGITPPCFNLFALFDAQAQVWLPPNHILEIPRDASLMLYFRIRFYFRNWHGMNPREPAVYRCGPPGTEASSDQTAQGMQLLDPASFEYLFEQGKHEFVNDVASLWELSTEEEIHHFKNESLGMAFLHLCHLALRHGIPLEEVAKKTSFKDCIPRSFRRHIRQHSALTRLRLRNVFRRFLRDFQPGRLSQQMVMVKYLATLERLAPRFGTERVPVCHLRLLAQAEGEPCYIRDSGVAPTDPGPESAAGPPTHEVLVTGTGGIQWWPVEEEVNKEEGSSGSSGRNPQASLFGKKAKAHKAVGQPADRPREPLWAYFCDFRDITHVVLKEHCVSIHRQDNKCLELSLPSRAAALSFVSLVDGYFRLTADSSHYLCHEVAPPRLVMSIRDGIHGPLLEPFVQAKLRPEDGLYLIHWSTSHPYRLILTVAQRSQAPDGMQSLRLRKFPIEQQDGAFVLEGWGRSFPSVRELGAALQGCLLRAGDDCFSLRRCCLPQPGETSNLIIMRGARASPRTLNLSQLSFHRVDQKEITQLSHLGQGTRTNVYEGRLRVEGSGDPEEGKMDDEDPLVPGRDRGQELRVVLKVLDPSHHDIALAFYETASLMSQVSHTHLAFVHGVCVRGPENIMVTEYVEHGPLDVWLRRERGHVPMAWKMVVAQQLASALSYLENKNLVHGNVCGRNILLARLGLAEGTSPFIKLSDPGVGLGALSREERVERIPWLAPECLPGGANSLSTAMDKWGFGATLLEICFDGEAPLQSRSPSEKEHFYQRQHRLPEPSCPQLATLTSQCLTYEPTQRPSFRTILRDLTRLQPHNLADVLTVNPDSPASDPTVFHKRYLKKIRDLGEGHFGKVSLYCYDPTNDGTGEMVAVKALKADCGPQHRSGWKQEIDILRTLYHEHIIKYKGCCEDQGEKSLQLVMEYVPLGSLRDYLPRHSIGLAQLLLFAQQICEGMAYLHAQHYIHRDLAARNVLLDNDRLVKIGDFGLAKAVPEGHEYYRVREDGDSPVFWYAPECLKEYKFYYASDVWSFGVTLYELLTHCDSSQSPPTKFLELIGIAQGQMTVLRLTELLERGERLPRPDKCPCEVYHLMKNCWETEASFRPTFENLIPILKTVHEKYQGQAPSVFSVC"}}}
{"smiles": "NC(=O)c1ccc(-c2cc(C(N)=O)c(N)c(-c3ccc(S(N)(=O)=O)cc3)c2)cc1", "values": [{"measurement": "kinase still bound, per cent of control", "setting": "MAPK10 (human)", "value": "no effect (inactive)"}]}
{"smiles": "Nc1ncnc2c1c(-c1cccc(O)c1)cn2C1CCNCC1", "values": [{"measurement": "kinase still bound, per cent of control", "setting": "MAPK10 (human)", "value": 0, "unit": "%"}]}
{"smiles": "Cc1ccc(C(=O)Nc2cccc(C(C)(C)C)c2)cc1-c1ccc(C(=O)NCC2CC2)cc1", "values": [{"measurement": "Kd", "setting": "TXK (human)", "value": 80, "unit": "nM"}]}
{"smiles": "CCS(=O)(=O)Nc1ccc2c(c1)[C@H](/C(=N/c1ccc(CN3CCCCC3)cc1)c1ccccc1)C(=O)N2", "values": [{"measurement": "Kd", "setting": "PAK2 (human)", "value": 14000, "unit": "nM"}, {"measurement": "Kd", "setting": "RPS6KA4 KD1 (human)", "value": 94, "unit": "nM"}, {"measurement": "Kd", "setting": "BRSK2 (human)", "value": 92, "unit": "nM"}, {"measurement": "Kd", "setting": "PTK2 (human)", "value": 33, "unit": "nM"}, {"measurement": "Kd", "setting": "PRKAA1 (human)", "value": 19, "unit": "nM"}, {"measurement": "Kd", "setting": "RPS6KA5 KD1 (human)", "value": 31, "unit": "nM"}, {"measurement": "Kd", "setting": "ROS1 (human)", "value": 77, "unit": "nM"}, {"measurement": "Kd", "setting": "PTK2B (human)", "value": 10, "unit": "nM"}, {"measurement": "Kd", "setting": "LTK (human)", "value": 52, "unit": "nM"}, {"measurement": "Kd", "setting": "[1]", "value": 75, "unit": "nM"}, {"measurement": "kinase still bound, per cent of control", "setting": "MAPK10 (human)", "value": 0, "unit": "%"}]}
